From patent US10704075B2, “Method for determining the reaction of a microorganism to its exposure to a chemical compound” (bioMérieux, priority 2015, dated 2020)
≈ marks a conversion by molar mass, not a printed value.

What was measured:
[1] = tested on: Escherichia coli strain ATCC 25922 called "EC10"; test: Reference methods (bioMérieux ETEST and VITEK card N233), strain EC10; assay type: cell-based; settings: for phenotype according to the EUCAST / reference: from reference MIC
Excerpt: In order to illustrate the performances obtained accordingly, the average score obtained for all the results that would be obtained with a combination of 5 spectra per concentration (N=5) out of a total set of total acquired spectra of 294 spectra (M=294) is shown in FIG. 4. […] The score indicates the percentage of the test samples that are assigned to a given class by the classifier described above. […] The strain can therefore be described as sensitive according to the invention with a high reliability on the basis of only a few individual bacteria analyses. The result is consistent with the reference methods [BioMérieux products ETEST® (antimicrobial susceptibility testing kit) GM 256 (ref. 412368) and VITEK® card N233 (Gram Negative Susceptibility card; ref. 413117)] which give as a result a MIC=1 μg/mL, which confirms that the bacterium is not resistant according to the EUCAST, its MIC not being strictly above the threshold defined by this organism.
A MIC comprised between 4 μg/mL and 8 μg/mL can therefore be assigned to this strain according to the assays. This variability to a dilution factor is very frequent in this type of assay, the EUCAST indicates, for example, ranges of MIC variations of [2-8]μg/mL for this strain ATCC 25922 during quality controls of the MIC disc diffusion tests, and is therefore consistent with expected results.
The detection of an effect for concentrations greater than 0.005 μg/mL is thus observed. An antibiotic effect of ciprofloxacin can therefore be assigned to the strain tested for concentrations greater than 0.005 μg/mL. This test would therefore define a concentration of 0.005 μg/mL as a MIC. A new test could possibly be performed by adding the lowest concentrations between 0 and 0.005 μg/mL if necessary. […] A test performed with a suitable etest (bioMérieux) allows measuring a MIC of 0.008 μg/mL which confirms that the obtained result is in accordance with the reference methods [BioMérieux products ETEST® CI 32 (antimicrobial susceptibility testing kit; ref. 412311) and VITEK® card N233 (Gram Negative Susceptibility card; ref. 413117)].

[2] = tested on: Escherichia coli strain ATCC 35421 called "EC21"; test: Reference methods, strain EC21; assay type: cell-based; settings: for phenotype according to the EUCAST / reference: from reference MIC
Description: A MIC>8 μg/mL can be assigned to this strain with this test, which is also consistent with the results obtained by the reference method.

[3] = tested on: Escherichia coli strain ATCC 25922; settings: cited from earlier work
[4] = tested on: Escherichia coli strain ATCC 35421 called "EC21"; test: Raman spectroscopy analysis of individual bacteria exposed to an antibiotic (method of the invention), strain EC21; assay type: cell-based
Description: A test identical to that of Example 1 is conducted on another strain of Escherichia coli, the strain ATCC 35421 called “EC21” allows confirming the discriminatory nature of the measurement.
In order to illustrate the discriminating power of this method, the same test performed for a strain of Escherichia coli ATCC 35421 resistant to amoxicillin called “EC21” is also shown.
A solution containing the bacteria to be tested, EC10 or EC21, is used as test sample. This solution is obtained by suspending 5 10^7 CFU/mL in water in order to have a concentration potentially encountered in a clinical sample, for example a urine collection. This bacteria solution is distributed in 5 filter tubes (for example MICROCON (Centrifugal filters) YM100 from Millipore) at a rate of 150 μL per tube. A sufficient amount is added to each of these tubes for the final 250 μL of physiological medium allowing the growth constituted in this example of a mixture of PBS of final concentration of 1× (obtained from the PBS tablets of the reference A9162,0100 of the brand AppliChem), of a nutrient medium TSB 0.1× (for example obtained from Bouillon TSB-T […] A8523-10ML of Sigma-Aldrich) as follows: • c0=0 μg/mL • c1=2 μg/mL • c2=4 μg/mL • c3=8 μg/mL • c4=16 μg/mL
The 5 tubes obtained accordingly are incubated for 2 hours at 37° C. with stirring. Centrifugation at 1200 g for 8 minutes using a centrifuge adapted to the used containers (for example the model 8415C of the brand Eppendorf) then allows retrieving a bacterial pellet on the filter portion of each tube and eliminating the medium. The bacterial pellets are respectively resuspended in water in order to carry out a washing before being again pelletized by centrifugation (1200 g for 10 minutes) always on the filter portion of the tube. These pellets are distributed on a glass slide of the Marienfield type constituting the interface I (not functionalized in this configuration) by means of a swab in corresponding chambers noted C0 to C4. […]

[5] = tested on: Escherichia coli strain ATCC 25922 called "EC10"; test: Raman spectroscopy analysis of individual bacteria exposed to an antibiotic (method of the invention), strain EC10; assay type: cell-based
Description: (§1) The retained conditioning device is constituted of two fluidic chambers and two antibiotic concentrations are tested: c0: “Without antibiotic” and “Resistance test”.
Let c1 be the concentration of gentamicin: c1=8 μg/mL, which corresponds to the doubling of the concentration 4 μg/mL corresponding to the clinical breakpoint as defined by the EUCAST. The objective of this test is to determine whether the bacterium is considered as resistant according to the definitions provided by the EUCAST.
A solution containing the bacteria to be tested is used as a test sample. This solution is obtained by suspending 5.10^7 CFU/mL in order to have a concentration potentially encountered in a clinical sample, for example a urine collection. This bacteria solution is brought into contact with the interface I of the device functionalized by adsorbing polyethylenimine (PEI) (generic capture). After a capture time of 10 minutes allowing the bacteria to come into contact with the functionalization, the interface I is washed with a water solution, this optional step allowing to eliminate the surplus of uncaptured bacteria still in solution. The physiological medium retained in this example is constituted of a poorly enriched mixture of Bouillon TSB-T Trypcase Soy broth (for example of the reference 42100 of bioMérieux) and of PBS 10× (for example obtained from the PBS tablets of the reference A9162, 0100 of the brand AppliChem) in a 1:9 ratio. After dividing this physiological medium into two fractions, an amount of gentamicin (for example of the reference G1397-10ML of Sigma-Aldrich) is added respectively to each of these fractions, allowing to obtain a different concentration of gentamicin c0 or c1. The solutions of concentrations c0 and c1 produced accordingly are respectively introduced into the chambers C0 or C1. The bacteria captured directly from the sample on the surface I are thus exposed, in a suitable medium, to a different antibiotic concentration depending on the chamber in which they are present.
The device is then heated in order to reach a temperature of 37° C. for two hours and then placed in measurement position on the micro-spectrometer. The marking of the captured bacteria is carried out by an automatic procedure based on image analysis, by a conventional procedure for detecting particles, acquired by means of the micro-spectrometer camera and a suitable light source. This marking allows acquiring automatically a series of Raman spectra (S0 and S1, respectively) acquired on individual bacteria present in each chamber C0 and C1. The number of spectra to be acquired for constituting a dataset depends on the level of requirement on the performances of the tests to be carried out. […]

[6] = tested on: Staphylococcus aureus strain ATCC 25923 called "SA44"; test: Raman spectroscopy analysis of individual bacteria exposed to an antibiotic (method of the invention), strain SA44; assay type: cell-based
Description: as §1
Let c1 be the concentration of oxacillin: c1=8 μg/mL which corresponds to multiplying by a factor of 32 the concentration of 0.25 μg/mL which corresponds to the clinical breakpoint as defined by the EUCAST. The objective of this test is to determine whether the bacterial strain is considered as resistant according to the definitions provided by the EUCAST.
A solution containing the bacteria to be tested is used as a test sample. This solution is obtained by suspending 5.10^7 CFU/mL in order to have a concentration potentially encountered in a clinical sample, for example a urine collection. The bacteria can come from a culture in a liquid medium or a culture in agar medium in Petri dish. This bacteria solution is brought into contact with the interface I of the device functionalized by adsorbing polyethylenimine (PEI) (generic capture). After a capture time of 10 minutes allowing the bacteria to come into contact with the functionalization, the interface I is washed with a water solution, this optional step allowing to eliminate the surplus of uncaptured bacteria still in solution. […]

[7] = tested on: Staphylococcus aureus strain ATCC 25923 called "SA44"; test: Reference methods (bioMérieux ETEST OX 256 or VITEK card P631), strain SA44; assay type: cell-based
E. coli = settings: cited from earlier work

CC1(C)S[C@@H]2[C@H](NC(=O)[C@H](N)c3ccc(O)cc3)C(=O)N2[C@H]1C(=O)O [amoxicillin]
MIC ([1]; Escherichia coli, ATCC25922, read-out: MIC (reference methods, MICREF)): 6 µg/mL | phenotype according to the EUCAST / reference [1]: sensitive | MIC ([2]; Escherichia coli, ATCC35421, read-out: MIC (reference methods, MICREF)): 256 µg/mL (≈ 701 µM) | phenotype according to the EUCAST / reference [2]: resistant | EUCAST range of MIC variations (acceptable variation range) ([3]; quality control range): 2 to 8 µg/mL | MIC ([4]; Escherichia coli, ATCC35421, Raman, tested 0, 4 and 8 μg/mL, N=11, read-out: MIC assigned by the method of the invention): > 8 µg/mL | category assigned to the vast majority of the measured groups ([4]; amoxicillin 4 and 8 μg/mL, N=11, FIG. 7): without ATB effect | MIC ([5]; Escherichia coli, ATCC25922, Raman, 2 hours at 37° C. incubation, read-out: MIC assigned by the method of the invention): 4 to 8 µg/mL (≈ 10.9 to 21.9 µM)

Cc1onc(-c2ccccc2)c1C(=O)N[C@@H]1C(=O)N2[C@@H]1SC(C)(C)[C@@H]2C(=O)O [oxacillin]
sensitivity phenotype according to the invention ([6]; Raman test at 8 μg/mL): sensitive | percentage of test samples classified as "ATB effect" ([6]; oxacillin 8 μg/mL, 2 hours at 37° C., N=9, M=337, FIG. 12 (liquid medium cultures)): greater than 97% | MIC ([7]; Staphylococcus aureus, ATCC25923, ETEST OX 256 or VITEK card P631): 0.25 µg/mL (≈ 0.623 µM) | phenotype according to the EUCAST / reference ([7]; from reference MIC): not resistant

gentamicin
MIC (reference methods, MICREF) ([1]; ETEST / VITEK card N233): 1 µg/mL | phenotype according to the EUCAST / reference [1]: not resistant | phenotype according to the EUCAST / reference [2]: resistant | MIC (reference methods, MICREF) ([2]; reference methods): > 256 µg/mL | typical MIC, or epidemiological cut-off of the species (E. coli): 2 μg/mL | percentage of performed tests that do not show a characteristic effect profile of the antibiotic agent ([4]; gentamicin 8 μg/mL, N=5, M=133): 100% | sensitivity phenotype according to the invention ([5]; Raman test at 8 μg/mL): sensitive | percentage of test samples classified as "ATB effect" ([5]; gentamicin 8 μg/mL, 2 hours at 37° C., N=5 spectra per sample, M=294, SVM classifier): 97.1%

O=C(O)c1cn(C2CC2)c2cc(N3CCNCC3)c(F)cc2c1=O [ciprofloxacin]
EUCAST known MIC [3]: 0.008 µg/mL | concentrations at which an antibiotic effect is detected ([5]; Raman, distance to gentamicin reference signature, tested 0, 0.005, 0.015, 0.064 μg/mL): greater than 0.005 μg/mL
